Source: PubChem BioAssay (NCI)
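These data come from cells grown in 96-well plates and exposed to compound for 48 hours at five concentrations. GI50: concentration for 50% inhibition of growth. TGI is the concentration that stops growth completely.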

Tests used:
Experiment in all cases: NCI anticancer screen, dose series, 48 h
786-0 renal = system: 786-0 renal
A498 renal = system: A498 renal
A549 NSCLC = system: A549 NSCLC
ACHN renal = system: ACHN renal
BT-549 breast = system: BT-549 breast
CAKI-1 renal = system: CAKI-1 renal
CCRF-CEM leukemia = system: CCRF-CEM leukemia
COLO 205 colon = system: COLO 205 colon
DU-145 prostate = system: DU-145 prostate
EKVX NSCLC = system: EKVX NSCLC
HCC-2998 colon = system: HCC-2998 colon
HCT-116 colon = system: HCT-116 colon
HCT-15 colon = system: HCT-15 colon
HL-60(TB) leukemia = system: HL-60(TB) leukemia
HOP-62 NSCLC = system: HOP-62 NSCLC
HOP-92 NSCLC = system: HOP-92 NSCLC
HS 578T breast = system: HS 578T breast
HT29 colon = system: HT29 colon
IGROV1 ovarian = system: IGROV1 ovarian
K-562 leukemia = system: K-562 leukemia
KM12 colon = system: KM12 colon
LOX IMVI melanoma = system: LOX IMVI melanoma
M14 melanoma = system: M14 melanoma
MALME-3M melanoma = system: MALME-3M melanoma
MCF7 breast = system: MCF7 breast
MDA-MB-231 breast = system: MDA-MB-231 breast
MDA-MB-435 = system: MDA-MB-435
MDA-N = system: MDA-N
MOLT-4 leukemia = system: MOLT-4 leukemia
NCI-H226 lung = system: NCI-H226 lung
NCI-H23 lung = system: NCI-H23 lung
NCI-H460 lung = system: NCI-H460 lung
NCI-H522 lung = system: NCI-H522 lung
NCI/ADR-RES ovarian = system: NCI/ADR-RES ovarian
OVCAR-3 ovarian = system: OVCAR-3 ovarian
OVCAR-4 ovarian = system: OVCAR-4 ovarian
OVCAR-5 ovarian = system: OVCAR-5 ovarian
OVCAR-8 ovarian = system: OVCAR-8 ovarian
PC-3 prostate = system: PC-3 prostate
RPMI-8226 leukemia = system: RPMI-8226 leukemia
RXF 393 renal = system: RXF 393 renal
SF-268 CNS = system: SF-268 CNS
SF-295 CNS = system: SF-295 CNS
SF-539 CNS = system: SF-539 CNS
SK-MEL-2 melanoma = system: SK-MEL-2 melanoma
SK-MEL-28 melanoma = system: SK-MEL-28 melanoma
SK-MEL-5 melanoma = system: SK-MEL-5 melanoma
SK-OV-3 ovarian = system: SK-OV-3 ovarian
SN12C renal = system: SN12C renal
SNB-19 CNS = system: SNB-19 CNS
SNB-75 CNS = system: SNB-75 CNS
SR leukemia = system: SR leukemia
SW-620 colon = system: SW-620 colon
T-47D breast = system: T-47D breast
TK-10 renal = system: TK-10 renal
U251 CNS = system: U251 CNS
UACC-257 melanoma = system: UACC-257 melanoma
UACC-62 melanoma = system: UACC-62 melanoma
UO-31 renal = system: UO-31 renal

SMILES: COc1ccc2nc3cccc([N+](=O)[O-])c3c(NCCNCCO)c2c1
- GI50 (786-0 renal): 21.2 nM
- TGI (786-0 renal): 102 nM
- GI50 (A498 renal): 26.2 nM
- TGI (A498 renal): 70.9 nM
- GI50 (A549 NSCLC): 27.4 nM
- TGI (A549 NSCLC): 119 nM
- GI50 (ACHN renal): 15.9 nM
- TGI (ACHN renal): 70.1 nM
- GI50 (BT-549 breast): 51 nM
- TGI (BT-549 breast): 173 nM
- GI50 (CAKI-1 renal): 39.6 nM
- TGI (CAKI-1 renal): 502 nM
- GI50 (CCRF-CEM leukemia): 24 nM
- TGI (CCRF-CEM leukemia): 173 nM
- GI50 (COLO 205 colon): 13.7 nM
- TGI (COLO 205 colon): 54.5 nM
- GI50 (DU-145 prostate): 10.4 nM
- TGI (DU-145 prostate): 746 nM
- GI50 (EKVX NSCLC): 104 nM
- TGI (EKVX NSCLC): 426 nM
- GI50 (HCC-2998 colon): 41.7 nM
- TGI (HCC-2998 colon): 206 nM
- GI50 (HCT-116 colon): 19.6 nM
- TGI (HCT-116 colon): 753 nM
- GI50 (HCT-15 colon): 206 nM
- GI50 (HL-60(TB) leukemia): 21.2 nM
- TGI (HL-60(TB) leukemia): 4140 nM
- GI50 (HOP-62 NSCLC): 35.2 nM
- TGI (HOP-62 NSCLC): 169 nM
- GI50 (HOP-92 NSCLC): 23 nM
- TGI (HOP-92 NSCLC): 64.9 nM
- GI50 (HS 578T breast): 50.1 nM
- TGI (HS 578T breast): 361 nM
- GI50 (HT29 colon): 12 nM
- TGI (HT29 colon): 99.1 nM
- GI50 (IGROV1 ovarian): 17.3 nM
- TGI (IGROV1 ovarian): 71.7 nM
- GI50 (K-562 leukemia): 15.3 nM
- TGI (K-562 leukemia): 121 nM
- GI50 (KM12 colon): 60 nM
- TGI (KM12 colon): 250 nM
- GI50 (LOX IMVI melanoma): 18.4 nM
- TGI (LOX IMVI melanoma): 72.1 nM
- GI50 (M14 melanoma): 19.8 nM
- TGI (M14 melanoma): 53.4 nM
- GI50 (MALME-3M melanoma): 25 nM
- TGI (MALME-3M melanoma): 124 nM
- GI50 (MCF7 breast): 10.2 nM
- TGI (MCF7 breast): 100 nM
- GI50 (MDA-MB-231 breast): 411 nM
- TGI (MDA-MB-231 breast): 8250 nM
- GI50 (MDA-MB-435): 25.6 nM
- TGI (MDA-MB-435): 90.3 nM
- GI50 (MDA-N): 37 nM
- TGI (MDA-N): 156 nM
- GI50 (MOLT-4 leukemia): 20.7 nM
- TGI (MOLT-4 leukemia): 229 nM
- GI50 (NCI-H226 lung): 52.2 nM
- TGI (NCI-H226 lung): 340 nM
- GI50 (NCI-H23 lung): 104 nM
- TGI (NCI-H23 lung): 2700 nM
- GI50 (NCI-H460 lung): 11.4 nM
- TGI (NCI-H460 lung): 102 nM
- TGI (NCI-H522 lung): 14.6 nM
- GI50 (NCI/ADR-RES ovarian): 660 nM
- TGI (NCI/ADR-RES ovarian): 6700 nM
- GI50 (OVCAR-3 ovarian): 26.5 nM
- TGI (OVCAR-3 ovarian): 66.7 nM
- GI50 (OVCAR-4 ovarian): 19.9 nM
- TGI (OVCAR-4 ovarian): 51.5 nM
- GI50 (OVCAR-5 ovarian): 32.7 nM
- TGI (OVCAR-5 ovarian): 185 nM
- GI50 (OVCAR-8 ovarian): 13 nM
- TGI (OVCAR-8 ovarian): 151 nM
- TGI (PC-3 prostate): 130 nM
- GI50 (RPMI-8226 leukemia): 19.8 nM
- TGI (RPMI-8226 leukemia): 111 nM
- GI50 (RXF 393 renal): 18.7 nM
- TGI (RXF 393 renal): 47.4 nM
- GI50 (SF-268 CNS): 18.4 nM
- TGI (SF-268 CNS): 92.5 nM
- GI50 (SF-295 CNS): 23.8 nM
- TGI (SF-295 CNS): 188 nM
- GI50 (SF-539 CNS): 43.3 nM
- TGI (SF-539 CNS): 186 nM
- GI50 (SK-MEL-2 melanoma): 16.7 nM
- TGI (SK-MEL-2 melanoma): 34.4 nM
- GI50 (SK-MEL-28 melanoma): 102 nM
- TGI (SK-MEL-28 melanoma): 352 nM
- GI50 (SK-MEL-5 melanoma): 11.3 nM
- TGI (SK-MEL-5 melanoma): 25.8 nM
- GI50 (SK-OV-3 ovarian): 45.9 nM
- TGI (SK-OV-3 ovarian): 388 nM
- GI50 (SN12C renal): 46.8 nM
- TGI (SN12C renal): 306 nM
- GI50 (SNB-19 CNS): 130 nM
- TGI (SNB-19 CNS): 636 nM
- GI50 (SNB-75 CNS): 36.7 nM
- TGI (SNB-75 CNS): 151 nM
- GI50 (SR leukemia): 16.7 nM
- TGI (SR leukemia): 3280 nM
- GI50 (SW-620 colon): 19.8 nM
- TGI (SW-620 colon): 610 nM
- GI50 (T-47D breast): 81.3 nM
- TGI (T-47D breast): 619 nM
- GI50 (TK-10 renal): 29.1 nM
- TGI (TK-10 renal): 272 nM
- GI50 (U251 CNS): 22.6 nM
- TGI (U251 CNS): 155 nM
- GI50 (UACC-257 melanoma): 51.8 nM
- TGI (UACC-257 melanoma): 189 nM
- GI50 (UACC-62 melanoma): 16.2 nM
- TGI (UACC-62 melanoma): 39.7 nM
- GI50 (UO-31 renal): 106 nM
- TGI (UO-31 renal): 336 nM
